# Data taken from patent US20260274829A1, “NEW E3 UBIQUITIN LIGASE LIGAND, PROTEIN DEGRADATION AGENT AND USE THEREOF” (GLUETACS THERAPEUTICS (SHANGHAI) CO., LTD., priority 2023, published 2026).
# Molecular target: T1, human Cereblon WT GST-tagged protein (Homo sapiens, UniProt Q96SW2)
# T1 construct: purchased CISBIO 64BDCRBNPEH
# Assay: CRBN binding, HTRF CEREBLON BINDING kit
# Conditions: CRBN binding, HTRF CEREBLON BINDING kit
# Method in brief: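 Binding inhibition was calculated from the 665/620 nm emission ratios, with blank wells and solvent wells as references. Test compounds competed for GST-tagged human Cereblon WT against a Thalidomide-Re reagent paired with GST Eu antibody. Plates were sealed and held at room temperature for 3 hours before the HTRF read.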
# T1 sequence (Q96SW2 whole entry): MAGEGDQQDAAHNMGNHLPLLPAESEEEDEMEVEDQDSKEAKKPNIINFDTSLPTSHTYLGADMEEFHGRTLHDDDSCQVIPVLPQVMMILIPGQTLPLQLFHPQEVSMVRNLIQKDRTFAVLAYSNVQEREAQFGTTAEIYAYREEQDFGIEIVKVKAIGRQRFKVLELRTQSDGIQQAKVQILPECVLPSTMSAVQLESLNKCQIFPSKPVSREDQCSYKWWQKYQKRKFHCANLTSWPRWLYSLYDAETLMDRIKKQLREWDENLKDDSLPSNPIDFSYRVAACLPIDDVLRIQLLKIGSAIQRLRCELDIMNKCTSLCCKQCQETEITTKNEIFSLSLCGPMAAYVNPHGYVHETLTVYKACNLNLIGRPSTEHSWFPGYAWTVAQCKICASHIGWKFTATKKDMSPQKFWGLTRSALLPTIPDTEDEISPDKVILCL
row,Structure (SMILES),IC50
1,"CN(Cc1cc(N2CCC(=O)NC2=O)ncc1F)C1CCN(c2ccc(-c3cc(F)c4c(c3)C(=O)N(C(C(=O)Nc3nccs3)c3ncn5c3CCC5)C4)cc2)CC1 (centres unmarked) [GT-07382, 2-(6,7-dihydro-5H-pyrrolo[1,2-c]imidazol-1-yl)-2-(6-(4-(4-(((2-(2,4-dioxotetrahydropyrimidin-1(2H)-yl)-5-fluoropyridin-4-yl)methyl)(methyl)amino)piperidin-1-yl)phenyl)-4-fluoro-1-oxoisoindolin-2-yl)-N-(thiazol-2-yl)acetamide]",500 to 1000 nM
2,"CN(Cc1ccnc(N2CCC(=O)NC2=O)c1)C1CCN(c2ccc(-c3cc(F)c4c(c3)C(=O)N(C(C(=O)Nc3nccs3)c3ncn5c3CCC5)C4)cc2)CC1 (centres unmarked) [GT-07383, 2-(6,7-dihydro-5H-pyrrolo[1,2-c]imidazol-1-yl)-2-(6-(4-(4-(((2-(2,4-dioxotetrahydropyrimidin-1(2H)-yl)pyridin-4-yl)methyl)(methyl)amino)piperidin-1-yl)phenyl)-4-fluoro-1-oxoisoindolin-2-yl)-N-(thiazol-2-yl)acetamide]",500 to 1000 nM
3,"CN(Cc1cncc(N2CCC(=O)NC2=O)c1)C1CCN(c2ccc(-c3cc(F)c4c(c3)C(=O)N(C(C(=O)Nc3nccs3)c3ncn5c3CCC5)C4)cc2)CC1 (centres unmarked) [GT-07384, 2-(6,7-dihydro-5H-pyrrolo[1,2-c]imidazol-1-yl)-2-(6-(4-(4-(((5-(2,4-dioxotetrahydropyrimidin-1(2H)-yl)pyridin-3-yl)methyl)(methyl)amino)piperidin-1-yl)phenyl)-4-fluoro-1-oxoisoindolin-2-yl)-N-(thiazol-2-yl)acetamide]",< 500 nM
4,"CN(Cc1ccc(C2CCC(=O)NC2=O)cn1)C1CCN(c2ccc(-c3cc(F)c4c(c3)C(=O)N(C(C(=O)Nc3nccs3)c3ncn5c3CCC5)C4)cc2)CC1 (centres unmarked) [GT-07385, 2-(6,7-dihydro-5H-pyrrolo[1,2-c]imidazol-1-yl)-2-(6-(4-(4-(((5-(2,6-dioxopiperidin-3-yl)pyridin-2-yl)methyl)(methyl)amino)piperidin-1-yl)phenyl)-4-fluoro-1-oxoisoindolin-2-yl)-N-(thiazol-2-yl)acetamide]",< 500 nM
5,"O=C1CCN(c2cc(CN3C[C@H]4C[C@@H]3CN4c3ccc(-c4cc(F)c5c(c4)C(=O)N(C(C(=O)Nc4nccs4)c4ncn6c4CCC6)C5)cc3)c(F)cn2)C(=O)N1 (stereo partly drawn) [GT-07386, 2-(6,7-dihydro-5H-pyrrolo[1,2-c]imidazol-1-yl)-2-(6-(4-((1R,4R)-5-((2-(2,4-dioxotetrahydropyrimidin-1(2H)-yl)-5-fluoropyridin-4-yl)methyl)-2,5-diazabicyclo[2.2.1]heptan-2-yl)phenyl)-4-fluoro-1-oxoisoindolin-2-yl)-N-(thiazol-2-yl)acetamide]",1000 to 1900 nM
6,"O=C1CCN(c2cc(CN3C[C@H]4C[C@@H]3CN4c3ccc(-c4cc(F)c5c(c4)C(=O)N(C(C(=O)Nc4nccs4)c4ncn6c4CCC6)C5)cc3)ccn2)C(=O)N1 (stereo partly drawn) [GT-07387, 2-(6,7-dihydro-5H-pyrrolo[1,2-c]imidazol-1-yl)-2-(6-(4-((1R,4R)-5-((2-(2,4-dioxotetrahydropyrimidin-1(2H)-yl)pyridin-4-yl)methyl)-2,5-diazabicyclo[2.2.1]heptan-2-yl)phenyl)-4-fluoro-1-oxoisoindolin-2-yl)-N-(thiazol-2-yl)acetamide]",1000 to 1900 nM
7,"O=C1CCN(c2cncc(CN3C[C@H]4C[C@@H]3CN4c3ccc(-c4cc(F)c5c(c4)C(=O)N(C(C(=O)Nc4nccs4)c4ncn6c4CCC6)C5)cc3)c2)C(=O)N1 (stereo partly drawn) [GT-07388, 2-(6,7-dihydro-5H-pyrrolo[1,2-c]imidazol-1-yl)-2-(6-(4-((1R,4R)-5-((5-(2,4-dioxotetrahydropyrimidin-1(2H)-yl)pyridin-3-yl)methyl)-2,5-diazabicyclo[2.2.1]heptan-2-yl)phenyl)-4-fluoro-1-oxoisoindolin-2-yl)-N-(thiazol-2-yl)acetamide]",< 500 nM
8,"O=C1CCC(c2ccc(CN3C[C@H]4C[C@@H]3CN4c3ccc(-c4cc(F)c5c(c4)C(=O)N(C(C(=O)Nc4nccs4)c4ncn6c4CCC6)C5)cc3)nc2)C(=O)N1 (stereo partly drawn) [GT-07389, 2-(6,7-dihydro-5H-pyrrolo[1,2-c]imidazol-1-yl)-2-(6-(4-((1R,4R)-5-((5-(2,6-dioxopiperidin-3-yl)pyridin-2-yl)methyl)-2,5-diazabicyclo[2.2.1]heptan-2-yl)phenyl)-4-fluoro-1-oxoisoindolin-2-yl)-N-(thiazol-2-yl)acetamide]",< 500 nM
9,"O=C1CCC(c2cc(CN3C[C@H]4C[C@@H]3CN4c3ccc(-c4cc(F)c5c(c4)C(=O)N(C(C(=O)Nc4nccs4)c4ncn6c4CCC6)C5)cc3)ccn2)C(=O)N1 (stereo partly drawn) [GT-07390, 2-(6,7-dihydro-5H-pyrrolo[1,2-c]imidazol-1-yl)-2-(6-(4-((1R,4R)-5-((2-(2,6-dioxopiperidin-3-yl)pyridin-4-yl)methyl)-2,5-diazabicyclo[2.2.1]heptan-2-yl)phenyl)-4-fluoro-1-oxoisoindolin-2-yl)-N-(thiazol-2-yl)acetamide]",500 to 1000 nM
10,"O=C1CCC(c2cncc(CN3C[C@H]4C[C@@H]3CN4c3ccc(-c4cc(F)c5c(c4)C(=O)N(C(C(=O)Nc4nccs4)c4ncn6c4CCC6)C5)cc3)c2)C(=O)N1 (stereo partly drawn) [GT-07391, 2-(6,7-dihydro-5H-pyrrolo[1,2-c]imidazol-1-yl)-2-(6-(4-((1R,4R)-5-((5-(2,6-dioxopiperidin-3-yl)pyridin-3-yl)methyl)-2,5-diazabicyclo[2.2.1]heptan-2-yl)phenyl)-4-fluoro-1-oxoisoindolin-2-yl)-N-(thiazol-2-yl)acetamide]",< 500 nM
11,"O=C1CCC(c2cc(CN3CCN(c4ccc(-c5cc(F)c6c(c5)C(=O)N(C(C(=O)Nc5nccs5)c5ncn7c5CCC7)C6)cc4)CC3)ccn2)C(=O)N1 (centres unmarked) [GT-07392, 2-(6,7-dihydro-5H-pyrrolo[1,2-c]imidazol-1-yl)-2-(6-(4-(4-((2-(2,6-dioxopiperidin-3-yl)pyridin-4-yl)methyl)piperazin-1-yl)phenyl)-4-fluoro-1-oxoisoindolin-2-yl)-N-(thiazol-2-yl)acetamide]",1000 to 1900 nM
12,"CN(Cc1cncc(C2CCC(=O)NC2=O)c1)C1CCN(c2ccc(-c3cc(F)c4c(c3)C(=O)N(C(C(=O)Nc3nccs3)c3ncn5c3CCC5)C4)cc2)CC1 (centres unmarked) [GT-07393, 2-(6,7-dihydro-5H-pyrrolo[1,2-c]imidazol-1-yl)-2-(6-(4-(4-(((5-(2,6-dioxopiperidin-3-yl)pyridin-3-yl)methyl)(methyl)amino)piperidin-1-yl)phenyl)-4-fluoro-1-oxoisoindolin-2-yl)-N-(thiazol-2-yl)acetamide]",< 500 nM
13,"O=C1CCC(c2cncc(CN3CCN(c4ccc(-c5cc(F)c6c(c5)C(=O)N(C(C(=O)Nc5nccs5)c5ncn7c5CCC7)C6)cc4)CC3)c2)C(=O)N1 (centres unmarked) [GT-07472, 2-(6,7-dihydro-5H-pyrrolo[1,2-c]imidazol-1-yl)-2-(6-(4-(4-((5-(2,6-dioxopiperidin-3-yl)pyridin-3-yl)methyl)piperazin-1-yl)phenyl)-4-fluoro-1-oxoisoindolin-2-yl)-N-(thiazol-2-yl)acetamide]",< 500 nM
14,"CN(Cc1ccnc(C2CCC(=O)NC2=O)c1)C1CCN(c2ccc(-c3cc(F)c4c(c3)C(=O)N(C(C(=O)Nc3nccs3)c3ncn5c3CCC5)C4)cc2)CC1 (centres unmarked) [GT-07473, 2-(6,7-dihydro-5H-pyrrolo[1,2-c]imidazol-1-yl)-2-(6-(4-(4-(((2-(2,6-dioxopiperidin-3-yl)pyridin-4-yl)methyl)(methyl)amino)piperidin-1-yl)phenyl)-4-fluoro-1-oxoisoindolin-2-yl)-N-(thiazol-2-yl)acetamide]",500 to 1000 nM
